Laboratory results taken from patent publication US5336677A, “Substituted aminopyrimidines as antihypertensives” (American Home Products Corporation, priority 1992, dated 1994).
Counter-ions that a name gives are not always drawn.

Columns and labels:
[1] = biological target: angiotensin II receptor; assay: rat adrenal receptor binding assay, displacement of radiolabeled angiotensin II (Inhibition of 125I Angiotensin II Binding); details: rat adrenal cortex membranes; 1 nM 125I-A II; 25° C.; 35 min
Procedure: The high affinity of the compounds for the angiotensin II receptor was established using a rat adrenal receptor binding assay, measuring the displacement of radiolabeled angiotensin II from the receptor, described as follows: Anesthetize male Sprague-Dawley rats (300-400 g body weight) with CO2 and sacrifice by cervical dislocation. Dissect adrenal glands and keep in ice-cold sucrose buffer. (0.2M sucrose, 1 mM EDTA, 10 mM Trizma base, pH=7.2). Remove medulla by squashing. Mince the cortex, rinse and homogenize in a chilled ground glass tissue grinder with 15 ml sucrose buffer. Centrifuge at 3000× g for 10 min. (Sorvall RCSC centrifuge, SS34 rotor 6200 rpm). Decant supernatant through gauze. Centrifuge combined supernatants at 12,000× g for 13 min. (Beckman ultracentrifuge, 80Ti rotor, 13,000 rpm). […] (Beckman ultracentrifuge, 80Ti rotor, 38,200 rpm). All steps are carried out at 4° C. Resuspend the pellet in 0.5 mL assay buffer (50 mM Tris HCI, 5 mM MgCl2, 0.2% BSA (protease-free), pH= 7.4, 25° C.). Store on ice. Determine membrane protein by Lowry or Bradford assay with BSA as standard. The binding assay is performed in triplicate, in 12×75 mm plastic test tubes or in 96-well plate (final volume of 0.25 mL). Add 140 μL assay buffer. […] Add 50 μL membrane suspension (e.g., 10 μg protein). Preincubate for 30 min at 25° C. […] Incubate for 35 min at 25° C. Stop the incubation by adding 1 mL ice-cold buffer (assay buffer without BSA). Filter with GF/C filters on cell harvester (filters are presoaked in the assay buffer containing 1% polyethyleneimine). Rinse assay tubes 3× with 5 mL cold buffer (assay buffer without BSA). Cut and deposit the filter discs into test tubes and count on gamma counter for 1 min. […] Calculate the quantities of hot A II and the cold A II needed and make the dilution. Aliquot, seal tight, and store frozen until needed. Calculate the concentration of the total A II (hot+cold) after dilution. On the day of assay, thaw the frozen aliquot and adjust the volume to give a concentration of 5 pmole/mL (or 0.25 pmole/50 μL) with assay buffer (+protease-free BSA).

[2] = tested on: A II-infused rat; assay: A II-infused rat model, antihypertensive action; type: in vivo; details: 3 mg/kg id (duodenal); four hours post-administration; ganglion-blocked (mecamylamine), A II infusion 0.25 μg/kg/min
Procedure: In accordance with their ability to antagonize angiotensin II, the compounds of this invention show antihypertensive action in the following A II-infused rat model. Rats are anesthetized with Dial-Urethane (0.60 mL/kg, ip) and the trachea cannulated with PE 240. Either one femoral artery and both femoral veins or the carotid artery and the corresponding jugular vein are cannulated with PE 50. If the jugular vein is cannulated, two cannulas are placed in the one vein. The initial portion of the duodenum (just distal to the stomach) is cannulated with PE 50 via a small midline incision. Arterial pressure and heart rate are measured from the arterial cannula. Ten to 15 min are allowed following surgery for stabilization of arterial pressure. Ganglion blockade is then produced by intravenous administration of mecamylamine at 3 mg/kg (1 mL/kg of a 3 mg/mL solution). Ganglion blockade causes a fall in arterial pressure of about 50 mmHg. Mecamylamine is given every 90 min throughout the remainder of the experiment. An A II infusion is then begun into the other venous cannula at 0.25 μg/kg/min (at 9.6 u Vmin). The A II infusion returns arterial pressure to or slightly above the control level. Once arterial pressure has stabilized with the A II infusion, baseline values for mean arterial pressure (MAP) and heart rate are taken. […]

Row | Structure (SMILES) | IC50 [1] [nM] | lowering of the A II dependent blood pressure (average) [2] [%]
1 | Cc1nc(C(F)(F)F)nc(NCc2ccc(-c3ccccc3-c3nnn[nH]3)cc2)c1C(C)C [Example 35, 6-Methyl-5-(1-methylethyl)-N-[[2'-(1H-tetrazol-5-yl)[1,1'-biphenyl]-4-yl]methyl]-2-(trifluoromethyl)-4-pyrimidinamine sodium salt sesquihydrate] | 3 | –
2 | CCc1nc(C(F)(F)F)nc(NCc2ccc(-c3ccccc3-c3nnn[nH]3)cc2)c1C(C)C [Example 40, 6-Ethyl-5-(1-methylethyl)-N-[[2'-1H-tetrazol-5-yl)[1,1'-biphenyl]-4-yl]methyl]-2-(trifluoromethyl)-4-pyrimidinamine sodium salt] | 6.5 | –
3 | C#CCc1c(C)nc(C)nc1NCc1ccc(-c2ccccc2-c2nnn[nH]2)cc1 [Example 57, 2,6-Dimethyl-5-(2-propynyl)-N-[(2'-(1H-tetrazol-5-yl)[1,1-biphenyl]-4-yl)methyl]-4-pyrimidinamine] | 39 | –
4 | CCCc1c(CC)nc(C(F)(F)F)nc1NCc1ccc(-c2ccccc2-c2nnn[nH]2)cc1 [Example 46, 6-Ethyl-5-propyl-N-[[2'-(1H-tetrazol-5-yl)[1,1'-biphenyl]-4-yl]methyl]-2-(trifluoromethyl)-4-pyrimidinamine sodium salt] | 2.5 | –
5 | C=CCc1c(C)nc(C)nc1NCc1ccc(-c2ccccc2-c2nnn[nH]2)cc1 [Example 53, 2,6-Dimethyl-5-(2-propenyl)-N-[(2'-(1H-tetrazol-5-yl)[1,1-biphenyl]-4-yl)methyl]-4-pyrimidinamine] | 7.5 | –
6 | Cc1nc(C(F)(F)F)nc(NCc2ccc(-c3ccccc3-c3nnn[nH]3)cc2)c1Cc1ccccc1 [Example 45, 6-Methyl-5-(phenylmethyl)-N-[[2'-(1H-tetrazol-5-yl)[1,1'-biphenyl]-4-yl]methyl]-2-(trifluoromethyl)-4-pyrimidinamine sodium salt hydrate] | 48 | –
7 | CCCc1cnc(C(F)(F)F)nc1NCc1ccc(-c2ccccc2-c2nnn[nH]2)cc1 [Example 39, 5-Propyl-N-[[2'-(1H-tetrazol-5-yl)[1,1'-biphenyl]-4-yl]methyl]-2-(trifluoromethyl)-4-pyrimidinamine sodium salt hydrate] | 49 | –
8 | Cc1cccc(Cc2c(NCc3ccc(-c4ccccc4-c4nnn[nH]4)cc3)nc(C)nc2C(F)(F)F)c1 [Example 42, 2-Methyl-5-[(3-methylphenyl)methyl]-N-[[2'-(1H-tetrazol-5-yl)[1,1'-biphenyl]-4-yl]methyl]-6-(trifluoromethyl)-4-pyrimidinamine sodium salt] | 41 | –
9 | Cc1nc(C)c(Cc2cccs2)c(NCc2ccc(-c3ccccc3-c3nnn[nH]3)cc2)n1 [Example 55, 2,6-Dimethyl-5-(2-thienylmethyl)-N-[(2'-(1H-tetrazol-5-yl)[1,1-biphenyl]-4-yl)methyl]-4-pyrimidinamine] | 58 | –
10 | C=CCc1c(C)nc(C(F)(F)F)nc1NCc1ccc(-c2ccccc2-c2nnn[nH]2)cc1 [Example 54] | 16 | –
11 | CCc1c(NCc2ccc(-c3ccccc3-c3nnn[nH]3)cc2)nc(C)nc1C(F)(F)C(F)(F)F [Example 43, 5-Ethyl-2-methyl-N-[[2'-(1H-tetrazol-5-yl)[1,1'-biphenyl]-4-yl]methyl]-6-(pentafluoroethyl)-4-pyrimidinamine sodium salt hydrate] | 11 | –

Further lines, with some results ahead:

Row | IC50 [1] [nM] | Structure (SMILES) | lowering of the A II dependent blood pressure (average) [2] [%]
12 | 330 | Cc1nc(NCc2ccc(-c3ccccc3C(=O)O)cc2)cc(C(F)(F)C(F)(F)F)n1 [Example 50, 4'-[[[2-Methyl-6-(pentafluoroethyl)-4-pyrimidinyl]amino]methyl][1,1'-biphenyl]-2-carboxylic acid hemihydrate] | –
13 | 850 | Cc1nc(NCc2ccc(-c3ccccc3C(=O)O)cc2)cc(C(F)(F)F)n1 [Example 51, 4'-[[[2-Methyl-6-(trifluoromethyl)-4-pyrimidinyl]amino]methyl][1,1'-biphenyl]-2-carboxylic acid sesquihydrate] | –
14 | 38 | Cc1nc(NCc2ccc(-c3ccccc3-c3nnn[nH]3)cc2)cc(C(F)(F)C(F)(F)F)n1 [Example 47, 2-Methyl-6-(pentafluoroethyl)-N-[[2'-(1H-tetrazol-5-yl)[1,1'-biphenyl]-4-yl]methyl]-4-pyrimidinamine sodium salt hydrate] | 57
15 | 500 | Cc1cc(NCc2ccc(-c3ccccc3C(=O)O)cc2)nc(C(F)(F)F)n1 [Example 52, 4'-[[[6-Methyl-2-(trifluoromethyl)-4-pyrimidinyl]amino]methyl][1,1'-biphenyl]-2-carboxylic acid] | –
16 | 25 | CCCc1c(C)nc(C(F)(F)F)nc1NCc1ccc(-c2ccccc2-c2nnn[nH]2)cc1 [Example 34, 6-Methyl-5-propyl-N-[[2'-(1H-tetrazol-5-yl)[1,1'-biphenyl]-4-yl]methyl]-2-(trifluoromethyl)-4-pyrimidinamine sodium salt hemihydrate] | –
17 | 61 | Cc1nc(NCc2ccc(-c3ccccc3-c3nnn[nH]3)cc2)cc(C(F)(F)F)n1 [Example 48, 2-Methyl-N-[[2'-(1H-tetrazol-5-yl)[1,1'-biphenyl]-4-yl]methyl]-6-(trifluoromethyl)-4-pyrimidinamine hydrate] | –
18 | 7.8 | CCc1cc(NCc2ccc(-c3ccccc3-c3nnn[nH]3)cc2)nc(C)n1 [Example 38, 6-Ethyl-2-methyl-N-[[2'-(1H-tetrazol-5-yl)[1,1'-biphenyl]-4-yl]methyl]-4-pyrimidinamine acetate trihydrate] | –
19 | 20 | Cc1nc(NCc2ccc(-c3ccccc3-c3nnn[nH]3)cc2)c(C)c(C(F)(F)F)n1 [Example 44, 2,5-Dimethyl-N-[[2'-(1H-tetrazol-5-yl)[1,1'-biphenyl]-4-yl]methyl]-6-(trifluoromethyl)-4-pyrimidinamine hemihydrate] | –
20 | 5.6 | CCc1cc(NCc2ccc(-c3ccccc3-c3nnn[nH]3)cc2)nc(C(F)(F)F)n1 [Example 36, 6-Ethyl-N-[[2'-(1H-tetrazol-5-yl)[1,1'-biphenyl]-4-yl]methyl]-2-(trifluoromethyl)-4-pyrimidinamine sodium salt sesquihydrate] | –
21 | 200 | Cc1nc(C)c(CC(=O)O)c(NCc2ccc(-c3ccccc3-c3nnn[nH]3)cc2)n1 [Example 56, [2,6-Dimethyl-N-[(2'-(1H-tetrazol-5-yl)[1,1-biphenyl]-4-yl)methyl]-4-pyrimidinamin-5-yl]acetic acid] | –
22 | 39 | FC(F)(F)C(F)(F)c1cc(NCc2ccc(-c3ccccc3-c3nnn[nH]3)cc2)nc(C2CC2)n1 [Example 37, 2-Cyclopropyl-6-(pentafluoroethyl)-N-[[2'-(1H-tetrazol-5-yl)[1,1'-biphenyl]-4-yl]methyl]-4-pyrimidinamine hydrate] | –
